The results in this text go back to US20150202311A1, “Collagen-peptide complex” (Q'SAI CO., LTD., priority 2013, published 2015).

In assay [1] the test system is collagen peptide. Put plainly: Coprecipitation of black tea components with collagen peptide, reverse-phase chromatography. It counts as binding, pig. Conditions: black tea A 200 ml + collagen peptide 5 g, FIG. 7B. How it is done:
(§1) Collagen peptide (dry powder of the pig skin-derived collagen hydrolysate, the average molecular weight: 3000-5000, manufactured by Nippi, Inc.) was dissolved in water so that the specified concentration is achieved.
To black tea A (200 ml), collagen peptide (5 g) was added and mixed; the supernatant and precipitate were separated by centrifuging (10,000×g, for 10 minutes) (Example 6). To determine the components, of the black tea A before the addition of the collagen peptide (FIG. 7A), the supernatant after centrifuging (FIG. 7B), and the precipitate solubilized with SDS (FIG. 7C), were analyzed by reverse-phase chromatography (column: Cosmosil 5C18-AR-II (manufactured by Nacalai Tesque, Inc.), mobile phase: 0.1% formic acid-containing acetonitrile, detection: 215 nm, 280 nm), respectively.

Assay [2] relates to collagen peptide. The experiment in a line: Complex formability of theaflavins and epicatechin with collagen peptide (total Hyp in supernatant / complex). It counts as binding, pig. Particulars: catechin 0.2 μmol in 1 ml. The procedure: as §1
A supernatant was obtained by adding the triple volume (v/v) of ethanol to the aqueous solution and centrifuging (10,000×g, 15 min). The supernatant was hydrolyzed with hydrochloric acid (under reduced pressure, 150° C., and 1 hour). After the PITC treatment, the amount of PTC-Hyp (=the total amount of Hyp in the solution) was determined by carrying out reverse-phase chromatography (column: LiChroCART 250-4 (manufactured by Merck)). The amount of PTC-Hyp (=the amount of free Hyp) was determined by carrying out the PITC treatment/reverse-phase chromatography for the supernatant without hydrochloric acid hydrolysis.
The respective aqueous solutions of theaflavins and epicatechin (1 mg/ml) and collagen peptide aqueous solution (200 mg/ml) were prepared, and they were raised at room temperature so that the below-described contents are attained. In the test examples of the present patent application, the following reagents were used.
After mixing, the supernatant and precipitate were separated by centrifuging (8,000×g, […]). According to Method 4, the total amount of Hyp was determined for the supernatant (=“the total amount of Hyp in the supernatant”). “The total amount of Hyp in the complex” was calculated by subtracting “the total amount of Hyp in the supernatant” from the amount of collagen peptide used in the above reaction (2 mg or 10 mg).

For the compound `O=c1c(O)cc([C@H]2Oc3cc(O)cc(O)c3C[C@H]2O)cc2c([C@H]3Oc4cc(O)cc(O)c4C[C@H]3O)cc(O)c(O)c12` [Example 8, theaflavin], in the assay on collagen peptide [1], the “fate of black tea component in the supernatant after mixing with collagen peptide and centrifuging” value (“fate of black tea component” below) was “disappeared from the supernatant”. For the same compound, in the assay on collagen peptide [2] (Collagen peptide 2 mg), the “Total Hyp in the complex (%)” value stood at 86.5% and the “Total Hyp in the supernatant (%)” value came to 13.5%. Also, in the assay with collagen peptide [2] (Collagen peptide 10 mg), the “Total Hyp in the complex (%)” value is 83.8% and the “Total Hyp in the supernatant (%)” value turned out to be 16.2%.
Taken in the same sequence, the figures for theaflavin-3,3′-digallate [Example 11] were “disappeared from the supernatant”, 98.0%, 2.0%, 97.8% and 2.2%.
The matching figures for `O=C(O[C@@H]1Cc2c(O)cc(O)cc2O[C@@H]1c1cc(=O)c(O)c2c(O)c(O)cc([C@H]3Oc4cc(O)cc(O)c4C[C@H]3O)c2c1)c1cc(O)c(O)c(O)c1` [Example 9, theaflavin-3-gallate]: “disappeared from the supernatant”, 87.0%, 13.0%, 86.6% and 13.4%.
theaflavin-3′-gallate [Example 10]: the “fate of black tea component” value with collagen peptide [1] is on record as “disappeared from the supernatant”. In the assay on collagen peptide [2] (Collagen peptide 2 mg), the “Total Hyp in the complex (%)” value is 97.7% and the “Total Hyp in the supernatant (%)” value was determined as 2.3%. In the assay with collagen peptide [2] (Collagen peptide 10 mg), the “Total Hyp in the complex (%)” value was 90.5% and the “Total Hyp in the supernatant (%)” value turned out to be 9.5%.
Consider `O=C(O[C@@H]1Cc2c(O)cc(O)cc2O[C@@H]1c1ccc(O)c(O)c1)c1cc(O)c(O)c(O)c1` [epicatechin gallate], for which the “fate of black tea component” value in the assay on collagen peptide [1] was “remained mostly in the supernatant”.
Still for that read-out and setting: for `Cn1c(=O)c2c(ncn2C)n(C)c1=O` [caffeine] the value was “remained mostly in the supernatant”.
On the same count and under the same terms, for `O=C(O[C@@H]1Cc2c(O)cc(O)cc2O[C@@H]1c1cc(O)c(O)c(O)c1)c1cc(O)c(O)c(O)c1` [epigallocatechin gallate] the value was “remained mostly in the supernatant”.
